Molecular target: recombinant human baculovirus-expressed cMET (Homo sapiens (Human), UniProt P08581)
Assay: C-MET Kinase Assay (HTRF KinEASE)
Assay type: biochemical
Settings: average of two or more determinations; read-out: c-MET IC50
Method in brief: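 HTRF KinEASE format with recombinant human baculovirus-expressed cMET at 8 ng/mL, biotinylated peptide at 0.1 μM and ATP at 0.02 μM. IC50 came from percent control activity versus log concentration, fitted by nonlinear regression to a variable-slope sigmoidal equation with bottom fixed at 0 and top at 100.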

SMILES	IC50 [nM]
CCn1cc(C(=O)Nc2ccc(Oc3ccnc4cc(OC)c(OC)cc34)c(C)c2C)c(=O)n(-c2ccc(F)cc2)c1=O [Example 157, 1-Ethyl-3-(4-fluoro-phenyl)-2,4-dioxo-1,2,3,4-tetrahydro-pyrimidine-5-carboxylic acid [4-(6,7-dimethoxy-quinolin-4-yloxy)-2,3-dimethyl-phenyl]-amide]	101 to 1000
COc1cc2nccc(Oc3ccc(NC(=O)c4cn(C(C)C)c(=O)n(-c5ccc(F)cc5)c4=O)c(C)c3C)c2cc1OC [Example 158, 3-(4-Fluoro-phenyl)-1-isopropyl-2,4-dioxo-1,2,3,4-tetrahydro-pyrimidine-5-carboxylic acid [4-(6,7-dimethoxy-quinolin-4-yloxy)-2,3-dimethyl-phenyl]-amide]	101 to 1000
COc1cc2nccc(Oc3ccc(NC(=O)c4cn(C(C)C)c(=O)n(-c5ccc(F)cc5)c4=O)cc3C(F)(F)F)c2cc1OC [Example 160, 3-(4-Fluoro-phenyl)-1-isopropyl-2,4-dioxo-1,2,3,4-tetrahydro-pyrimidine-5-carboxylic acid [4-(6,7-dimethoxy-quinolin-4-yloxy)-3-trifluoromethyl-phenyl]-amide]	101 to 1000
COc1cc(Oc2ccnc3cc(OC)c(OC)cc23)ccc1NC(=O)c1nn(C(C)C)c(=O)n(-c2ccc(F)cc2)c1=O [Example 166, 4-(4-Fluoro-phenyl)-2-isopropyl-3,5-dioxo-2,3,4,5-tetrahydro-1,2,4-triazine-6-carboxylic acid [4-(6,7-dimethoxy-quinolin-4-yloxy)-2-methoxy-phenyl]-amide]	101 to 1000
CCn1nc(C(=O)Nc2ccc(Oc3ccnc4cc(OC)c(OC)cc34)cc2OC)c(=O)n(-c2ccc(F)cc2)c1=O [Example 170, 2-Ethyl-4-(4-fluoro-phenyl)-3,5-dioxo-2,3,4,5-tetrahydro-1,2,4-triazine-6-carboxylic acid [4-(6,7-dimethoxy-quinolin-4-yloxy)-2-methoxy-phenyl]-amide]	10 to 100

Further lines, results first:

IC50 [nM]	SMILES
10 to 100	CCn1cc(C(=O)Nc2cc(C)c(Oc3ccnc4cc(OC)c(OC)cc34)c(C)c2)c(=O)n(-c2ccc(F)cc2)c1=O [Example 161, 1-Ethyl-3-(4-fluoro-phenyl)-2,4-dioxo-1,2,3,4-tetrahydro-pyrimidine-5-carboxylic acid [4-(6,7-dimethoxy-quinolin-4-yloxy)-3,5-dimethyl-phenyl]-amide]
10 to 100	COc1cc2nccc(Oc3c(C)cc(NC(=O)c4cn(C(C)C)c(=O)n(-c5ccc(F)cc5)c4=O)cc3C)c2cc1OC [Example 162, 3-(4-Fluoro-phenyl)-1-isopropyl-2,4-dioxo-1,2,3,4-tetrahydro-pyrimidine-5-carboxylic acid [4-(6,7-dimethoxy-quinolin-4-yloxy)-3,5-dimethyl-phenyl]-amide]
10 to 100	COc1cc2nccc(Oc3ccc(NC(=O)c4cn(C(C)C)c(=O)n(-c5ccc(F)cc5)c4=O)cc3C)c2cc1OC [Example 163, 3-(4-Fluoro-phenyl)-1-isopropyl-2,4-dioxo-1,2,3,4-tetrahydro-pyrimidine-5-carboxylic acid [4-(6,7-dimethoxy-quinolin-4-yloxy)-3-methyl-phenyl]-amide]
10 to 100	CCn1nc(C(=O)Nc2ccc(Oc3ccnc4cc(OC)c(OC)cc34)cn2)c(=O)n(-c2ccc(F)cc2)c1=O [Example 164, 2-Ethyl-4-(4-fluoro-phenyl)-3,5-dioxo-2,3,4,5-tetrahydro-1,2,4-triazine-6-carboxylic acid [5-(6,7-dimethoxy-quinolin-4-yloxy)-pyridin-2-yl]-amide]
< 10	CCn1nc(C(=O)Nc2ccc(Oc3ccnc4cc(OC)c(OC)cc34)c(C(F)(F)F)c2)c(=O)n(-c2ccc(F)cc2)c1=O [Example 169, 2-Ethyl-4-(4-fluoro-phenyl)-3,5-dioxo-2,3,4,5-tetrahydro-1,2,4-triazine-6-carboxylic acid [4-(6,7-dimethoxy-quinolin-4-yloxy)-3-trifluoromethyl-phenyl]-amide]

— patent US9745283B2, “Uracil derivatives as AXL and c-MET kinase inhibitors” (priority 2011, dated 2017)
